Data on one molecule can be found in US5543517A, “Substituted bicyclic phosphoramides and derivatives thereof” (The DuPont Merck Pharmaceutical Company, priority 1994, dated 1996).

The subject of this assay is HIV-1 (RF). Briefly: HIV RNA assay (microplate based compound evaluation in HIV-1 infected MT-2 cells). It is filed as cell-based. Particulars: Human immunodeficiency virus 1, MT2, 72 h; HIV RNA assay, HIV-1 (RF) infected MT-2 cells, 3 days, 37° C.; read-out: IC90. The procedure: DNA Plasmids and In Vitro RNA Transcripts
Plasmid pDAB 72 containing both gag and pol sequences of BH10 (bp 113-1816) cloned into PTZ 19R was prepared according to Erickson-Viitanen et al. AIDS Research and Human Retroviruses 1989, 5, 577. The plasmid was linearized with Bam HI prior to the generation of in vitro RNA transcripts using the Riboprobe Gemini system II kit (Promega) with T7 RNA polymerase. Synthesized RNA was purified by treatment with RNase free DNAse (Promega), phenol-chloroform extraction, and ethanol precipitation. RNA transcripts were dissolved in water, and stored at -70° C. The concentration of RNA was determined from the A260.
Biotinylated capture probes were purified by HPLC after synthesis on an Applied Biosystems (Foster City, Calif.) DNA synthesizer by addition of biotin to the 5' terminal end of the oligonucleotide, using the biotinphosphoramidite reagent of Cocuzza, Tet. Lett. 1989, 30, 6287. The gag biotinylated capture probe (5-biotin-[…] 3') was complementary to nucleotides 889-912 of HXB2 and the pol biotinylated capture probe (5'-biotin --[…] 3') was complementary to nucleotides 2374-2395 of HXB2. Alkaline phosphatase conjugated oligonucleotides used as reporter probes were prepared by Syngene (San Diego, Calif.). The pol reporter probe (5' […] 3') was complementary to nucleotides 2403-2425 of HXB2. The gag reporter probe (5' […] 3') was complementary to nucleotides 950-973 of HXB2. All nucleotide positions are those of the GenBank Genetic Sequence Data Bank as accessed through the Genetics Computer Group Sequence Analysis Software Package (Devereau Nucleic Acids Research 1984, 12, 387). The reporter probes were prepared as 0.5 μM stocks in 2×SSC(0.3M NaCl, 0.03M sodium citrate), 0.05M Tris pH 8.8, 1 mg/mL BSA. The biotinylated capture probes were prepared as 100 μM stocks in water.
Streptavidin Coated Plates
Nunc-immunomodule microtiter plate strips were coated by addition of 200 μL of streptavidin (30 μg/mL, Scripps, La Jolla, Calif.) in freshly prepared 10 mM sodium carbonate (pH 9.6). Plates were incubated overnight at 4° C. Streptavidin solution was aspirated from the wells and a blocking buffer composed of phosphate buffered saline (PBS), 20 mg/mL bovine serum albumin (crystalline, nuclease and protease free, Calbiochem) and 100 mg/mL lactose (Sigma) was added to the plates for 3 hrs at room temperature. Blocking buffer was removed from the wells, which were allowed to dry overnight at room temperature and subsequently stored at 4° C. in zip lock bags with desiccant. For the majority of the compound evaluation experiments, streptavidin coated plates were obtained from Du Pont Biotechnology Systems (Boston, Mass.).
MT-2, CEM, and H9 cells were maintained in RPMI 1640 supplemented with 5% fetal calf serum (FCS), 2 mM L-glutamine and 50 μg/mL gentamycin, all from Gibco. Laboratory strains of HIV-1 (RF, MN and IIIB) were propagated in H9 cells in the same medium. Virus stocks were prepared approximately 1 month after acute infection of H9 cells by clarification of the tissue culture medium and storage of aliquots at -70° C. Infectious titers of HIV-1 (RF) stocks were 1-3×10^7 PFU (plaque forming units)/mL as measured by plaque assay on MT-2 cells (see below). Each aliquot of virus stock used for infection was thawed only once. In some cases, infected H9 cells were shifted to Dulbecco's modified Eagle's medium 3-10 days before collection of virus in order to generate virus stocks in medium with low biotin content. Clinical isolates of HIV that had been passaged once in MT-2 cells were used to infect fresh MT-2 cells in RPMI medium. Three days after infection, cells were pelleted, resuspended and culture continued in Dulbecco's modified Eagle's medium as above. Virus stocks of clinical isolates were prepared 10-15 days after infection when cytopathic effects were apparent in the culture. […]

By IC90 is commonly meant the point of the concentration-response curve where the effect stands at 90%. For the molecule `O=P12O[C@H]([C@@H](O)[C@@H](Cc3ccccc3)N1Cc1ccc(CO)cc1)[C@@H](Cc1ccccc1)N2Cc1ccc(CO)cc1` [Example 5C, (3-endo,4-endo,6-exo)-2,7-Bis(4-(hydroxymethyl)phenylmethyl)-3,6-bis(phenylmethyl)-8-oxa-2,7-diaza-1-phosphabicyclo[3.2.1]octan-4-ol 1-oxide], the concentration for an effect of 90% (IC90) is below 10 µg/mL.
